Patent US10071084B2, “Nanoparticle, method of preparating the same, and use of the nanoparticle” (Samsung Electronics Co., Ltd., priority 2013, dated 2018)

System: HepG2 liver cancer cells
Experiment: Cytotoxicity by released nanoparticles containing SRF and BSA: cell viability, CCK-8 kit
Assay type: cell-based
Conditions: Homo sapiens, 50 μM SRF dissolved in DMSO, 3 hours incubation at 37° C., then 3 days in fresh medium, relative to DMSO-treated cells
Method: Liposomes that were sonicated were incubated with cells to confirm the cell viability.
The liposomes of Example 4 were sonicated at a temperature of 25° C. for 16 minutes by using a pool-type sonicator (Branson).
The sonicated liposomes, unsonicated liposomes, 50 μM of SRF (Santa Cruz Biotechnology, Inc.) dissolved in dimethyl sulfoxide (DMSO) (Aldrich), or DMSO itself was added to about 5,000 HepG2 liver cancer cells, followed by being incubated at a temperature of 37° C. for 3 hours. Here, the medium used in the incubation was exchanged with fresh medium. The cells were incubated for at a temperature of 37° C. for 3 days, and number of the cells was counted by using a CCK-8 kit (Dojindo). The cell viability was relatively calculated with respect to the number of the cells that were treated with DMSO, and the results were shown in FIG. 7 (1: DMSO, 2: SRF dissolved in DMSO, 3: liposomes that are not sonicated, 4: liposomes that are sonicated for 16 minutes).

`CNC(=O)c1cc(Oc2ccc(NC(=O)Nc3ccc(Cl)c(C(F)(F)F)c3)cc2)ccn1` [SRF, sorafenib] was tested, and the viability at 50 µM was ~36%.
